Here are results for eleven molecules from patent US8278338B2 (priority 2004, dated 2012).

The target in one test is 5-HT reuptake (Rattus norvegicus, UniProt P31652). Briefly: biochemical. The note with it: for inhibition at 10 µM: read-out: Inhibition of 5-HT reuptake (% inhibition at 10 μmol./l), 10 μmol./l. The source says:
In order to be able to carry out these in vitro studies, synaptosomes were freshly isolated from areas of rat brain. […] For NA reuptake, these vesicular particles were isolated from the hypothalamus of male rat brains, and for 5HT reuptake, they were isolated from the medulla+pons region.
The IC50 values were obtained with the aid of the “Figure P” computer program (Version 6.0, Biosoft, Cambridge, England). […] The “Ligand” computer program (Version 4, Biosoft, England) was used to show KD values.

The next test addresses T1, human μ-opiate receptor (Homo sapiens, UniProt P35372).
T1 construct: purchased Perkin Elmer, Zaventem, Belgium RB-HOM; host or cells: CHO-K1 cells
The experiment in a line: Affinity for the human μ-opiate receptor, [3H]-naloxone displacement (SPA) on CHO-K1 receptor membrane preparation. It is filed as binding. The note with it: for inhibition at 1 µM: 1.5 h, read-out: μ-Opioid receptor affinity (% inhibition at 1 μmol./l), 1 μmol./l test substance; for inhibition at 1 µM / μ-Opioid receptor affinity (% inhibition at 1 μmol./l): inhibition of specific [3H]-naloxone binding; for μ-Opioid receptor affinity (% inhibition at 1 μmol./l): 1 μmol./l test substance. How it is done: The receptor affinity for the human μ-opiate receptor was determined in a homogeneous batch on microtitre plates. To that end, serial dilutions of the substances to be tested were incubated for 90 minutes at room temperature with a receptor membrane preparation (15-40 μg of protein/250 μl of incubation batch) of CHO-K1 cells, which express the human μ-opiate receptor (RB-HOM receptor membrane preparation from Perkin Elmer, Zaventem, Belgium), in the presence of 1 nmol./l of the radioactive ligand [^3H]-naloxone (NET719, Perkin Elmer, Zaventem, Belgium) and 1 mg of WGA-SPA beads (wheatgerm agglutinin SPA beads from Amersham/Pharmacia, Freiburg, Germany) in a total volume of 250 μl. The incubation buffer used was 50 mmol./l of Tris-HCl supplemented with 50 μM MgCl2 and 0.05% bovine serum albumin. In order to determine non-specific binding, 100 μmol./l of naloxone were additionally added. When the ninety-minute incubation time was complete, the microtitre plates were centrifuged off for 20 minutes at 1000 g and the radioactivity was measured in a β-counter (Microbeta-Trilux, PerkinElmer, Freiburg, Germany). The percentage displacement of the radioactive ligand from its binding to the human μ-opiate receptor at a concentration of the test substances of 1 μmol./l was determined and stated as the percentage inhibition of specific binding. […] Ki values for the test substances were obtained by conversion by means of the Cheng-Prusoff equation (Cheng and Prusoff 1973).

For a further test, the system named is mouse. Briefly: Formalin test in the mouse (phase 2, chronic pain component). The test is classed as in vivo. The note with it: for ED50: iv, read-out: Inhibition of the nociceptive behaviour versus control, ED50 value. Here is the method:
(§1) The formalin test (Dubuisson, D. and Dennis, S. G., 1977, Pain, 4, 161-174) represents a model for acute and chronic pain. By means of a single formalin injection into the dorsal side of a rear paw, a biphase nociceptive reaction was induced in freely mobile test animals; the reaction was assessed by observing three behaviour patterns which are clearly distinguishable from one another. The reaction is two-phase: phase 1=immediate reaction (duration up to 10 minutes; shaking of the paw, licking), phase 2=late reaction (after a rest phase; likewise shaking of the paw, licking; duration up to 60 minutes). The first phase reflects a direct stimulation of the peripheral nocisensors with a high spinal nociceptive input or glutamate release (acute pain phase); the second phase reflects a spinal and peripheral hypersensitisation (chronic pain phase). In the studies presented here, the chronic pain component (phase 2) was evaluated.
Formalin was administered subcutaneously in a volume of 20 μl and a concentration of 1% into the dorsal side of the right rear paw of each animal. The specific behavioural changes, such as lifting and shaking of the paw (score 3), were observed and recorded over an observation period of from 21 to 24 minutes after the formalin injection. The size of the group was 10 animals (n=10).
(§2) On the basis of the PR calculations, the activity of the substance was determined in percent as the change relative to a control. The ED50 was determined by means of regression analysis.

Another test deals with T2, NA reuptake (Rattus norvegicus, UniProt Q63380).
T2 construct: isolated from the hypothalamus of male rat brains; from tissue; host or cells: rat brain synaptosomes (P2 fraction), hypothalamus of male rats
T2 sequence (Q63380 1-617): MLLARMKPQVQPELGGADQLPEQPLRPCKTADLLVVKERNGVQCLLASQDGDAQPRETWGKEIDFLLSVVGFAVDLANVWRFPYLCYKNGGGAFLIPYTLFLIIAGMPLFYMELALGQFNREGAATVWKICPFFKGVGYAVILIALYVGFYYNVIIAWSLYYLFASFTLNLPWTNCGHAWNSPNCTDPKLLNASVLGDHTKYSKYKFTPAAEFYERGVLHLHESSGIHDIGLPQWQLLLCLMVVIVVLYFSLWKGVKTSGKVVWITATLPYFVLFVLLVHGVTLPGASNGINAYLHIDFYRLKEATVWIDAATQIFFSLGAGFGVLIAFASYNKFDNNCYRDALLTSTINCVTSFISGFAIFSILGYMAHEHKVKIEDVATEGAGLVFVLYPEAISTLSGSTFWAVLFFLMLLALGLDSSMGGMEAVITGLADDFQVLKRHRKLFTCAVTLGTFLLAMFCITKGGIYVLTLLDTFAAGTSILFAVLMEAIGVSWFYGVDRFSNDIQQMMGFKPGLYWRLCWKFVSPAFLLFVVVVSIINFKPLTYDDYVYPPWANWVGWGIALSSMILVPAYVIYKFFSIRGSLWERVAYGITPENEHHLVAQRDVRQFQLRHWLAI
The experiment in a line: Inhibition of NA reuptake in rat brain synaptosomes (hypothalamus, P2 fraction). The note with it: for inhibition at 10 µM: 10 μmol./l. It is filed as biochemical. Here is the method:
In order to be able to carry out these in vitro studies, synaptosomes were freshly isolated from areas of rat brain. A so-called “P2” fraction was used in each case, which was prepared exactly according to the procedure of Gray, E. G. and Whittaker, V. P. (1962, J. Anat. […], 79-88). For NA reuptake, these vesicular particles were isolated from the hypothalamus of male rat brains, and for 5HT reuptake, they were isolated from the medulla+pons region.
IC50 values were obtained thereby which can be converted into inhibitor constants (Ki) according to the “Cheng-Prusoff equation” (Cheng, Y. C. and Prusoff, W. H., 1973, Biochem. Pharmacol. 22, 3099-3108). The IC50 values were obtained with the aid of the “Figure P” computer program (Version 6.0, Biosoft, Cambridge, England). Km values were calculated according to Lineweaver, H. and Burk, D. (1934, J. Am. Chem. Soc. 56, 658-666). The “Ligand” computer program (Version 4, Biosoft, England) was used to show KD values.

The test system of a further test is rat. The experiment in a line: Formalin test in the rat (phase 2, chronic pain component). It is filed as in vivo. Here is the method:
as §1
Formalin was administered subcutaneously in a volume of 50 μl and a concentration of 5% into the dorsal side of the right rear paw of each animal. The specific behavioural changes, such as lifting and shaking of the paw, weight shifting of the animal and biting and licking reactions, were observed and recorded over an observation period of from 21 to 27 minutes after the formalin injection. The various behaviours were combined to give the so-called pain rate (PR) which, based on 3-minute intervals, represents the calculation of a mean nociceptive reaction. The PR was calculated on the basis of a numerical weighting (=in each case factor 1, 2, 3) of the observed behaviours (corresponding to behaviour score 1, 2, 3) and was calculated using the following formula:
The size of the group was 10 animals (n=10).
as §2

The mark [1] stands for this setting: rat synaptosomes, Cheng-Prusoff.
Setting [2] is: Cheng-Prusoff from IC50, [3H]-naloxone 1 nmol./l, read-out: μ-Opioid receptor affinity, Ki.
[3] abbreviates: 21.5 mg/kg i.v., phase 2, 21.5 mg/kg.

Read-outs that look alike come from different tables or passages of the source.

T1 sequence (P35372 whole entry): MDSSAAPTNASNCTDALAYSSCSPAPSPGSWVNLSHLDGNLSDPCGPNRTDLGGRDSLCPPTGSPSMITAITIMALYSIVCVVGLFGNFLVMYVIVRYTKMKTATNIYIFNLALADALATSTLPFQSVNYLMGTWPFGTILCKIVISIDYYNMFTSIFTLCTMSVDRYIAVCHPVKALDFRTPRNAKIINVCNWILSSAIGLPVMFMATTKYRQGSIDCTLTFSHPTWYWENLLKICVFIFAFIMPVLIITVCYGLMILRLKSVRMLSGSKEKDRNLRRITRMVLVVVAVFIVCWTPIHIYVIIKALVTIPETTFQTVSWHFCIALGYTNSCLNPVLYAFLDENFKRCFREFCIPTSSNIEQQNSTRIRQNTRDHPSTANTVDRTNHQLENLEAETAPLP
Sequence of 5-HT reuptake (P31652 whole entry): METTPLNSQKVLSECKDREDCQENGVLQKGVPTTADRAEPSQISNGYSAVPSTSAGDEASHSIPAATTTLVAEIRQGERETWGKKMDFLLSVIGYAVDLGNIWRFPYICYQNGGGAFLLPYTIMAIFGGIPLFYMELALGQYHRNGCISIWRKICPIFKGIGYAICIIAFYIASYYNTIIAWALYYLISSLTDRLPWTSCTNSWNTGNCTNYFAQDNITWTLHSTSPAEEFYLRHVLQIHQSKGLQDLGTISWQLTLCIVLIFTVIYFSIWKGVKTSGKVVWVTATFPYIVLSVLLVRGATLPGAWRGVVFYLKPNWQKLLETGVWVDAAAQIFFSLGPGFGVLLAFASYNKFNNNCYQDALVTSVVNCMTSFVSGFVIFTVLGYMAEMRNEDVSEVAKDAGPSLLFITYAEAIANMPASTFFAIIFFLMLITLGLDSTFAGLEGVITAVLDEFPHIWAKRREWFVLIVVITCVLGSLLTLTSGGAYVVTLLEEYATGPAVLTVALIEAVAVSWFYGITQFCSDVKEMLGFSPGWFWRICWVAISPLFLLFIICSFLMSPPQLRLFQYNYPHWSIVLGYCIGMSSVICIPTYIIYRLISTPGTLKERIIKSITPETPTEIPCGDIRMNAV

For the molecule `CN(C)CC1=C(c2cccnc2)c2ccccc2C1` [Example 3, dimethyl-(3-pyridin-3-yl-1H-inden-2-ylmethyl)-amine], the figures for the inhibition constant (Ki) at 5-HT reuptake (setting [1]) and at human μ-opiate receptor were 13 nM and 240 nM, respectively. In the test with mouse (phase 2, regression analysis), the ED50 worked out at 3.32 mg/kg. At NA reuptake, this molecule registered an inhibition at 10 µM of 30%.
Regarding `CN(C)CC1Cc2ccccc2C1c1cccnc1` (stereo not drawn) [Example 4, dimethyl-(1-pyridin-3-yl-indan-2-ylmethyl)-amine], the “Inhibition of the nociceptive behaviour versus control (% inhibition)” value (“Inhibition … (% inhibition)” for short) with rat (4.64 mg/kg i.v., phase 2) was −61.60%. Further, the inhibition at 10 µM on 5-HT reuptake (rat synaptosomes) was 86%; on NA reuptake it was 46%. For the same molecule, the inhibition at 1 µM on human μ-opiate receptor was determined as 31%.
As to `COc1ccc2c(c1)CC(CN(C)C)C2(O)c1cccnc1` (stereo not drawn) [Example 5, 2-dimethylaminomethyl-5-methoxy-1-pyridin-3-yl-indan-1-ol], in the test on rat (21.5 mg/kg i.v., phase 2), the “Inhibition … (% inhibition)” value is −43.0%. The molecule further displayed an inhibition constant (Ki) on 5-HT reuptake (setting [1]) of 170 nM. On human μ-opiate receptor, the inhibition at 1 µM was 49%. For the same molecule, the inhibition at 10 µM at NA reuptake amounted to 29%.
For `COc1ccc2c(c1)CC(CN(C)C)=C2c1cccnc1` [Example 6, (6-methoxy-3-pyridin-3-yl-1H-inden-2-ylmethyl)-dimethyl-amine], the figures for the Ki on 5-HT reuptake (setting [1]) and on human μ-opiate receptor were 28 nM and 150 nM, respectively. For the same molecule, the ED50 in the test with mouse (phase 2, regression analysis) was 1.64 mg/kg. On NA reuptake, this molecule showed an inhibition at 10 µM of 31%.
Turning to `CN(C)CC1=C(c2cccnc2)c2ccc(O)cc2C1` [Example 7, 2-dimethylaminomethyl-1-pyridin-3-yl-3H-inden-5-ol], the ED50 with rat (iv, phase 2, regression analysis, read-out: Inhibition of the nociceptive behaviour versus control, ED50 value) came to 2.93 mg/kg. The Ki was 25 nM on 5-HT reuptake and 380 nM at human μ-opiate receptor (setting [2]). In addition, at NA reuptake, the inhibition at 10 µM came out at 59%.
Regarding `CN(C)CC1=C(c2cccnc2)c2ccccc2CC1` [Example 9, dimethyl-(1-pyridin-3-yl-3,4-dihydro-naphthalen-2-ylmethyl)-amine], in the test with rat (10 mg/kg i.v., phase 2), the “Inhibition … (% inhibition)” value was −97.0%. The inhibition at 10 µM worked out at 56% at 5-HT reuptake (rat synaptosomes) and 26% against NA reuptake. For the same molecule, the Ki on human μ-opiate receptor (setting [2]) was found to be 560 nM.
`CN(C)CC1=C(c2cccnc2)c2ccccc2CCC1` [Example 12, dimethyl-(5-pyridin-3-yl-8,9-dihydro-7H-benzocyclohepten-6-ylmethyl)-amine]: the Ki was 120 nM on 5-HT reuptake (setting [1]) and 380 nM on human μ-opiate receptor (setting [2]). The “Inhibition … (% inhibition)” value in the test with mouse (14.7 mg/kg i.v., phase 2) is −45.8%. The same molecule displayed an inhibition at 10 µM against NA reuptake of 20%.
On to `CN(C)CC1CCSc2ccccc2C1(O)c1cccnc1` (stereo not drawn) [Example 13, 4-dimethylaminomethyl-5-pyridin-3-yl-2,3,4,5-tetrahydro-benzo[b]thiepin-5-ol], for which the “Inhibition … (% inhibition)” value with rat (setting [3]) is reported as −53.6%. Further, the inhibition at 10 µM on 5-HT reuptake (rat synaptosomes) is 41%; on NA reuptake, 45%. Also, on human μ-opiate receptor, the “μ-Opioid receptor affinity (% inhibition at 1 μmol./l)” value is −23%.
With `CN(C)CC1CCSc2ccccc2C1(O)c1cccnc1` (stereo not drawn) [Example 14, 4-dimethylaminomethyl-5-pyridin-3-yl-2,3,4,5-tetrahydro-benzo[b]thiepin-5-ol], the “Inhibition … (% inhibition)” value with rat (setting [3]) is −53.2%. For the same molecule, the “Inhibition of 5-HT reuptake (% inhibition at 10 μmol./l)” value on 5-HT reuptake (10 μmol./l, rat synaptosomes) is reported as 44%. On human μ-opiate receptor, the “μ-Opioid receptor affinity (% inhibition at 1 μmol./l)” value was −14%. For the same molecule, the “Inhibition of NA reuptake (% inhibition at 10 μmol./l)” value at NA reuptake is listed as 54%.
Turning to `CN(C)CC1=C(c2cccnc2)c2ccccc2SCC1` [Example 15, dimethyl-(5-pyridin-3-yl-2,3-dihydro-benzo[b]thiepin-4-ylmethyl)-amine], the “Inhibition … (% inhibition)” value with rat (10 mg/kg i.v., phase 2) is −70.7%. The inhibition at 10 µM on 5-HT reuptake (rat synaptosomes) worked out at 60%; against NA reuptake it was 36%. Also, the Ki on human μ-opiate receptor (setting [2]) amounted to 320 nM.
As for `COc1ccc(C(CN(C)C)C2(O)CCCCC2)cc1` (stereo not drawn) [Venlafaxin, venlafaxin, reference compound], the “μ-Opioid receptor affinity (% inhibition at 1 μmol./l)” value on human μ-opiate receptor is given as −1%. The “Inhibition of the nociceptive behaviour versus control, ED50 value” with mouse (i.v., phase 2, regression analysis) is reported as 2.60 mg/kg.

In general, Ki refers to the equilibrium dissociation constant of an inhibitor or competing ligand from its target. The term ED50 denotes the midpoint of the dose-response relation.
